“Also recorded” adds a separate entry of the source.
Tested on: 14-3-3γ/Tau pS214 interaction
Experiment: Fluorescence anisotropy 14-3-3γ titration with compound and monovalent Tau pS214 peptide
Format: binding
Details: SF250μM with 14-3-3γ, 250 μM compound
Method: FA assays in which 14-3-3γ was titrated to a constant concentration of compound (250 μM) in the presence of the distinct monovalent Tau peptide (10 nM) were performed.
The determined stabilization factors are concentration-dependent (here 250 μM of compound) and might differ based on assay design. […] The app. α-factors of these compounds for both 14-3-3/Tau complexes were determined by 14-3-3γ titrations in the presence of varied concentrations of the particular compound (Fig. 5d and e). Both compounds reached saturation for both 14-3-3γ/Tau complexes enabling accurate determination of the α-factor. The app. α-factors of aldehydes 1 and 18 were plotted for both 14-3-3γ/Tau complexes to investigate phospho-binding site selective cooperativity (Fig. 5f and h). To do so, the stabilization factors at a given compound concentration were plotted against the compound concentration, leading to the determination of the app. α-factors. […]
chromatography (HisTrap high performance cartridges, Cytiva). Typically two 5 mL columns were used for a 2 L culture in which the lysate was loaded on the column, washed with 10 CV wash buffer (50 mM Hepes, pH 8.0, 300 mM NaCl, 25 mM imidazole, 2 mM βME), and eluted with several fractions (2-4 CV) of elution buffer (50 mM Hepes, pH 8.0, 300 mM NaCl, 250 mM imidazole, 2 mM βME). Fractions containing the 14-3-3 protein were combined and dialyzed into 25 mM HEPES pH 8.0, 200 mM NaCl, 10 mM MgCl2, 2 mM βME, followed by dialysis into 25 mM HEPES, 100 mM NaCl, 10 mM MgCl2, 500 μM TCEP (adjusted to pH 8.0). Dialyzed protein was concentrated to ∼40 mg/mL, analyzed by Q -Tof LC/MS, and aliquots were flash -frozen for storage at −80 °C. […]
0.1% (v/v) Tween20, 0.1% (w/v) BSA). Dilution series were made in polystyrene low -volume 384 -well plates (Corning #4514, Black Round Bottom). Measurements were performed directly after plate preparation, using a Tecan SPARK plate reader at room temperature ( λex: 485±20 nm; λem: 535±25 nm; mirror: automatic; flashes: 30; settle time: 1 ms; gain: optimal; Z -position: calculated from well). Wells containing only fluorescein labelled peptide were used to set as G -factor calibrated from these wells. All data were analyzed using GraphPad Prism (10.0.1) and fitted with a four -parameter logistic model (4PL) to determine binding affinities (dissociation constant, KD). All data shown is background corrected for the signal without 14 -3-3ζ and the mean and standard deviation of technical duplicate is plotted, assay performed in a scientific duplicate for hit compounds.
Fluorescence Anisotropy – 14-3-3 titrations in the presence of compound To characterize the affinity of the Tau peptides for 14-3-3 in the presence of compound, 14-3-3ζ or γ was titrated in a 2-fold dilution series starting at 400 (for the 14-3-3ζ titrations to Tau pS2) or 800 (for the 14-3-3γ titrations to Tau pS214 or pS324) µM. 14-3-3 was added to 10 nM of fluorescein-labeled peptide (Tau pS2, Tau pS214 or Tau pS324) in the presence of 250 µM compound (1% DMSO). The assays were performed in a similar way as described above. Data shown is the average and standard deviation of a technical duplicate, top plateau corrected where needed, assay performed in a scientific duplicate. […]
The peptide screen was performed in a similar way as the 14-3-3ζ titration in the precence of compound.
14-3-3ζ was titrated in a 2-fold dilution series (starting at 400 µM 14-3-3ζ) to 100 nM of fluorescein-labeled peptides and 250 µM compound 18 (1% DMSO) in FA buffer (10 mM HEPES pH 7.4, 150 mM […]
Data shown is the average of a scientific triplicate. […]
DSF was performed using 40 µl samples containing 2.5 µM 14 -3-3ζ, 25 µM Tau peptide (Tau pS2, Tau pS214 or Tau pS324), […] (1% DMSO) and 5x ProteoOrange (Lumiprobe, 5000x stock in DMSO) in 10 mM HEPES, 150 mM NaCl, 50 µM TCEP (pH 7.4). The samples were heated from 35 °C to 79°C at a rate of 0.3 °C per 15 s in a C FX96 Touch Real-Time PCR Detection System (Bio -Rad). Fluorescence […]

| SMILES | phospho-binding site preference Tau pS214 versus Tau pS324 (in words) |
| --- | --- |
| CCc1ccc(-c2nccn2-c2ccc(C=O)c(Br)c2)cc1 [Compound 18] | significantly greater extent; also recorded: highest stabilization selectivity for the 14-3-3γ/Tau pS214 complex |
| O=Cc1ccc(-n2ccnc2-c2ccc(F)cc2)cc1Br [Compound 13] | no preference for Tau pS214 |
| O=Cc1ccc(-n2ccnc2-c2ccc(I)cc2)cc1Br [Compound 15] | significantly greater extent; also recorded: preference for Tau pS214 |
| Cc1cccc(-c2nccn2-c2ccc(C=O)c(Br)c2)c1 [Compound 6] | no significant preference |
| N#Cc1ccc(-c2nccn2-c2ccc(C=O)c(Br)c2)cc1 [Compound 22] | preference for Tau pS214 |
| Cc1ccc(-c2nccn2-c2ccc(C=O)c(Br)c2)cc1 [Compound 11] | significantly greater extent |
| O=Cc1ccc(-n2ccnc2-c2ccc(Cl)cc2)cc1Br [Compound 14] | significantly greater extent; also recorded: preference for Tau pS214 |
| O=Cc1ccc(-n2ccnc2-c2ccccc2)cc1Br [Compound 1] | did not show a difference in stabilization |
